Source: patent US6124308A, “Optically active phenyl pyrimidine derivatives as analgesic agent” (priority 1995, dated 2000)
Where two headings read alike, the source gives them in different places.

Legend:
[1] = system: hind-limb extension (maximal electroshock seizure); assay: Maximal electroshock test, rats, i.p., duration of action; type: in vivo, rat; conditions: for ED50: Rattus norvegicus, ip, read-out: ED50 (95% limits)
rat liver DHFR = target: T1, rat liver DHFR (Rattus norvegicus, UniProt Q920D2); assay: Activity against dihydrofolate reductase (DHFR), spectrophotometric assay; type: biochemical
T1 construct: rat liver DHFR; from tissue; host or cells: rat liver
T1 sequence (Q920D2 1-187): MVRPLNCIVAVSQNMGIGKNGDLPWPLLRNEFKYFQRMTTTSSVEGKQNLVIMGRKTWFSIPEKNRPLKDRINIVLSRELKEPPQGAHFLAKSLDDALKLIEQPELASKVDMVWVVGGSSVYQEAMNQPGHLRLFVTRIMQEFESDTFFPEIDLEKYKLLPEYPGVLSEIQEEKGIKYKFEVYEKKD

[2] = system: whole-cell sodium currents in cultured rat hippocampal neurones; assay: Whole-cell sodium currents in cultured embryonic rat hippocampal neurones, patch-clamp; type: cell-based
Description: (b) Cultured embryonic rat hippocampal neurones
Sodium currents were elicited by the application of 20 msec dipolarisng pulses, thereby lowering membrane potential to -10 mV from a holding potential of -60 mV.

[3] = system: electrical activity of the external oblique muscle (egg albumin sensitised rats); assay: Irritable bowel syndrome model: colorectal distension in egg albumin sensitised rats; type: in vivo, rat; conditions: 10 mg/kg p.o., 60 minutes before pressure response curve
Protocol: Male Listar hooded rats weight range 100-150 g were used.
The rats were sensitised by dosing ip (1 ml per rat) with a solution containing egg albumin, (10 ug/ml) pertusssis vaccine (1 mg/ml) and aluminium hydroxide (10 mg/ml). Control animals received saline.
Seven days later the rats were anaesthetised using isofurane and the external oblique muscle exposed. Two nichrome wires were implanted into the muscles and the wires exteriorised to the back of the neck, the skin was sutured and the animals were allowed to recover.
Six days later the animals were fasted overnight. On the following day the animals were anaesthetised and the colorectum washed out using saline. A 4 cm long latex balloon tied to a portex cannula was connected to an inflation device, and the nichrome electrodes at the back of the neck were connected to head stage.
The electrical activity of the external oblique muscle was recorded by a data capture system (`spike2`) which calculated the number of electrical spikes. Sequential pressure response curves (10-100 mmHg) in sensitised and the control animals were constructed. The balloon was inflated for 1 min at each pressure, followed by a rest period of 5 min.
The mean number of spikes at each pressure was calculated for the control animals, sensitised animals and sensitised animals treated with the R(-) enantiomer. […]

[4] = system: striatal dopamine in MPTP injected C57B1/6 mice; assay: MPTP induced neurotoxic model, striatal dopamine levels; type: in vivo, mouse
Protocol: Six-week old male C57B1/6 mice (Japan SLC Co., Hamamatu) were housed ten per case in a temperature-controlled room under a 12-hours light/12-hours dark cycle with free access to food and water.
Mice received i.p. injections of the R(-) enantiomer and the S(+) enantiomer (30 mg/kg) in olive oil starting 12 hours before MPTP injection and every 12 hours for the next 5-injections. Control mice received olive oil only.
Mice receive s.c. injection of MPTP-HCl (40 mg of free base per kg; Research Biochemicals) in saline. Control mice received saline only.
HPLC with electrochemical detection was used to measure striatal levels of dopamine (J.C. Garcia': Journal of Chromatography B. 656 (1994) 77-80).
Seven days after the MPTP injection, mice ([…]) were killed and striata were dissected out, immediately frozen, and stored at -80° C. until analysis. On the day of the assay, tissue samples were sonicated in 10 vol(wt/vol) of 0.1M perchloric acid /1.9 mM sodium hydrogen sulfite containing 1.6μg/ml 3,4-dihydroxybenzylamine hydrobromide(Sigma) as an internal standard. After centrifugation (2,800× g for 10 min at room temperature) and filtration (0.5 μm; Millipore membrane filter), 10 μl of supernatant was injected onto an Inertsil ODS3 column (4.6×250 mm; GL Science, Tokyo). The mobile phase consisted of 88% 115 mM NaH2 PO4 /0.178 mM Na2 EDTA /0.92 mM 1-octanesulfonic acid (pH=2.6) solution and 12% ethanol. F low rate was 1.0 ml/min. Peaks were detected by a Shimazu electrochemical detector LECD-6A(700 mV).

[5] = system: native channels in cultured rat striatal neurones (Na+ currents); assay: Native sodium channels in cultured rat striatal neurones, whole-cell recording; type: cell-based
Description: The action of the R(-)enantiomer on native channels in cultured rat striatal neurones was studied using whole-cell recording techniques.

Half-life in male rats = type: in vivo, rat; conditions: rat, in vivo, read-out: half-life (t1/2) (converted)
[6] = system: established PGE2-induced acute hyperalgesia; assay: Effects on established PGE2-induced acute hyperalgesia (paw pressure); type: in vivo; conditions: Rattus norvegicus, po, 2 h after PGE2 (100 ng); read-out: analgesia ED50 and 95% confidence limits
Protocol: Effects on established PGE2 -induced acute hyperalgesia
The R(-)enantiomer was given orally 2 h after subplantar injection of PGE2 (100 ng) when the hyperalgesia was established. Reaction time to paw pressure was measured 3 h after the PGE2 administration.

[7] = system: veratrine-evoked glutamate release from rat brain slices; assay: Inhibition of veratrine-evoked glutamate release; type: cell-based; conditions: at 10 μM
[8] = target: T2, rat type IIA sodium channels (Rattus norvegicus, UniProt P04775); assay: Recombinant rat type IIA sodium channels in chinese hamster ovary cells, whole-cell recording; type: cell-based; conditions: for IC50: read-out: IC50 (inhibition of Na+ currents)
T2 construct: no beta subunit mentioned
Description: The IC50 's at two different holding potentials (Vh) were as follows: […]

[9] = system: PGE2-induced acute hyperalgesia; assay: Effects on the development of PGE2-induced acute hyperalgesia (paw pressure); type: in vivo, rat; conditions: p.o., 1 h before PGE2 (100 ng), n=5
Protocol: Effects on the development of PGE2 -induced acute hyperalgesia
Reaction times to paw pressure were measured 3 h after PGE2 injection. Ataxia was scored at the same time by observation of the rats placed in an arena.

[10] = system: maximal electroshock seizure; assay: Maximal electroshock test, mice, different routes of administration; type: in vivo, mouse; conditions: for ED50: Mus musculus, mice, 1 hour, read-out: ED50 (95% limits)

T2 sequence (P04775 whole entry): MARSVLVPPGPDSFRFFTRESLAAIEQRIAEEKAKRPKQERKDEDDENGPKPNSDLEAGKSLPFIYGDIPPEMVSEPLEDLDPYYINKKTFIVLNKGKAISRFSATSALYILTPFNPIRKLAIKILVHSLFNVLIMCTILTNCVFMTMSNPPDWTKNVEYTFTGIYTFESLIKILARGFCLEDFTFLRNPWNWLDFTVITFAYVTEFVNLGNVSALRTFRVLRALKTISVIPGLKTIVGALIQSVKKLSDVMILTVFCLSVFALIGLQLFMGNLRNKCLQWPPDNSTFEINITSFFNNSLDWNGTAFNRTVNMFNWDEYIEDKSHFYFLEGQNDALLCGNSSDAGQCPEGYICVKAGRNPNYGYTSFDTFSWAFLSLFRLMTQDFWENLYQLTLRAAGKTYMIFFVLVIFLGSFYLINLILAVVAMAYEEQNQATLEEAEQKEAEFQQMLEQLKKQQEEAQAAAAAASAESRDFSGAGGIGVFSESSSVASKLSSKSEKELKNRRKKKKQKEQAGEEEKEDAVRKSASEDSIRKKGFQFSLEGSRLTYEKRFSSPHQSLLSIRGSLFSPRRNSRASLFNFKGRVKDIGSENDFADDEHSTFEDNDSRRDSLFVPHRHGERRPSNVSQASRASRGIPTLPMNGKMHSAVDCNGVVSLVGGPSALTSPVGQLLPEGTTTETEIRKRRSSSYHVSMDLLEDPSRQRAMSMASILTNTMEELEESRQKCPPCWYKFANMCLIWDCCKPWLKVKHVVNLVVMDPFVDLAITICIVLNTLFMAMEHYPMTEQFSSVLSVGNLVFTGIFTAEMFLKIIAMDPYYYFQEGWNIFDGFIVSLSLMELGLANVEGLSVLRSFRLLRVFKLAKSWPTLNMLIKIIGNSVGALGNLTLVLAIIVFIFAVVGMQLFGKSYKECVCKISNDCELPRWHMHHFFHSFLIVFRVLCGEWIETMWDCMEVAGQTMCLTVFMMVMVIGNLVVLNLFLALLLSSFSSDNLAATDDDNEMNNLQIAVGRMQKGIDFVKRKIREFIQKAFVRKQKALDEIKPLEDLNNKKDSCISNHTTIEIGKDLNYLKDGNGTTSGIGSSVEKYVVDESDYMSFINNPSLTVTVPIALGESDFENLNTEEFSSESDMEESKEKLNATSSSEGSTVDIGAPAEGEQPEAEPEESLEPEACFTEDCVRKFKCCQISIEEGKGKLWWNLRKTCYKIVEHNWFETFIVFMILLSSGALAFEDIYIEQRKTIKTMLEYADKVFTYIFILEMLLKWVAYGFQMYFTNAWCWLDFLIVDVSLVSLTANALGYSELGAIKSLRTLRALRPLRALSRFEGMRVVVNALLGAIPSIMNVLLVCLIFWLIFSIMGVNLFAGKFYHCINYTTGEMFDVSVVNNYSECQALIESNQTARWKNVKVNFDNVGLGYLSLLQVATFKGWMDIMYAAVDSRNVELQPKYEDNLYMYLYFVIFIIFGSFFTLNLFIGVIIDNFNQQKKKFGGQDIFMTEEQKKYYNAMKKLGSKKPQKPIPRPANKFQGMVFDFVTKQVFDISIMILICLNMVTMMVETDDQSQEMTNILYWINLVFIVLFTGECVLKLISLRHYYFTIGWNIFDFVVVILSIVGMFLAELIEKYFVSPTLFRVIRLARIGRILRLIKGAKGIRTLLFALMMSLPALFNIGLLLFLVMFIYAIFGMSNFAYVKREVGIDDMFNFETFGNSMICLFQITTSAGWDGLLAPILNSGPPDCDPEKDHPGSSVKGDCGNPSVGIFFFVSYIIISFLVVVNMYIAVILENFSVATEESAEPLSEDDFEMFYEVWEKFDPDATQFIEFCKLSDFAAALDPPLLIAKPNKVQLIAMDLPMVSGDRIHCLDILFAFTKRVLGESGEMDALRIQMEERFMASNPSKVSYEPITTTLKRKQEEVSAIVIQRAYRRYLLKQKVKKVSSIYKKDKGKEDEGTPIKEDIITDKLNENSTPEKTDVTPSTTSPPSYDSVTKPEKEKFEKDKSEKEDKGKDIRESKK

Nc1nc(N)c(-c2cccc(Cl)c2Cl)c(CF)n1 [R(-)enantiomer, R(-)-2,4-diamino-5-(2,3-dichlorophenyl)-6-fluoromethyl pyrimidine]
ED50 ([1]; 8 h, i.p., rats, 8 hours): 5.9 mg/kg | ED50 ([1]; 24 h, i.p., rats, 24 hours): 12.9 mg/kg | times more active than its S(=)enantiomer ([1]; anticonvulsant, rats, i.p.): 15-20 times | times more active than lamotrigine ([1]; anticonvulsant, rats, i.p.): 2-3 times | ED50 at 2 hrs (isethionate salt versus base) ([1]; i.p., 2 hrs, calculated as the base, p<0.05, listed as R(-) enantiomer base, 120 min): 2.5 mg/kg | ED50 (95% limits) ([1]; i.p., rats, 0.5 hours, 30 min): 1.3 (0.9-1.9) mg/kg | ED50 (95% limits) ([1]; i.p., rats, 1 hour, 60 min): 1.0 (0.7-1.5) mg/kg | ED50 (95% limits) ([1]; i.p., rats, 2 hours, 120 min): 1.2 (0.8-1.7) mg/kg | ED50 (95% limits) ([1]; i.p., rats, 4 hours, 240 min): 2.3 (1.6-3.4) mg/kg | duration of action ([1]; maximal electroshock): long duration of action | inhibition at 100 µM (rat liver DHFR): 25% | IC50 ([2]; 20 msec pulses to -10 mV from holding potential -60 mV, read-out: IC50 (reduction of peak sodium current)): 4 µM | reduction of peak sodium current ([2]; holding potential -60 mV): concentration-dependent reduction of peak sodium current | reversal of the changes induced by egg albumin [3]: complete reversal | % protection ([4]; 30 mg/kg i.p. 6 times, MPTP 40 mg/kg s.c.): 81.0% | Dopamine content in the striatum ([4]; 30 mg/kg i.p. 6 times, MPTP 40 mg/kg s.c., day 7): 12.45 ± 1.18 μg/g wet tissue | % mortality ([4]; 30 mg/kg i.p., day -1 to 7): 0% | inhibition of Na+ currents [5]: concentration- and voltage-dependent inhibition of Na^+ currents | inhibition by 10-30 μM on hyperpolarising the cells ([5]; 10-30 μM, Vh = -120 mV): virtually eliminated | IC50 ([5]; Rattus norvegicus, holding potential (Vh) of 60 mV, read-out: IC50 (inhibition of Na+ currents)): ~8 µM | potency at Vh = -90 mV compared with IC50 at 60 mV ([5]; Vh = -90 mV): much lower potency | half-life (Half-life in male rats): 5.4 h | ED50 [6]: 3.4 mg/kg | inhibition of veratrine-evoked glutamate release [7]: 64% | inhibition of Na+ currents ([8]; R(-)enantiomer 1-500 μM): inhibition of Na^+ currents in a concentration-dependent and voltage-dependent manner | IC50 ([8]; Vh = -60 mV): 18 µM | IC50 ([8]; Vh = -90 mV): 160 µM | Analgesia ED50 (95% limits) [9]: 2.5 (2.2-2.9) mg/kg | ED50 ([10]; ip, i.p.): 1.3 mg/kg | ED50 ([10]; po, p.o.): 1.2 mg/kg | ED50 ([10]; sc, s.c.): 0.96 mg/kg | times more potent than lamotrigine in the maximal electroshock test ([10]; in rats and mice): 2-3 times | activity by the various routes tested ([10]; maximal electroshock, rats and mice): approximately equiactive by the various routes tested
